Square brackets hold non-standard residues; d marks the D form. Peptide text beside a SMILES is read from it. * marks the point of attachment. Propionyl = CCC(=O)*; Mpa = O=C(O)CCS

Chain of Stromelysin-1 (MMP-3) (Rattus norvegicus) (P03957 whole entry, looked up): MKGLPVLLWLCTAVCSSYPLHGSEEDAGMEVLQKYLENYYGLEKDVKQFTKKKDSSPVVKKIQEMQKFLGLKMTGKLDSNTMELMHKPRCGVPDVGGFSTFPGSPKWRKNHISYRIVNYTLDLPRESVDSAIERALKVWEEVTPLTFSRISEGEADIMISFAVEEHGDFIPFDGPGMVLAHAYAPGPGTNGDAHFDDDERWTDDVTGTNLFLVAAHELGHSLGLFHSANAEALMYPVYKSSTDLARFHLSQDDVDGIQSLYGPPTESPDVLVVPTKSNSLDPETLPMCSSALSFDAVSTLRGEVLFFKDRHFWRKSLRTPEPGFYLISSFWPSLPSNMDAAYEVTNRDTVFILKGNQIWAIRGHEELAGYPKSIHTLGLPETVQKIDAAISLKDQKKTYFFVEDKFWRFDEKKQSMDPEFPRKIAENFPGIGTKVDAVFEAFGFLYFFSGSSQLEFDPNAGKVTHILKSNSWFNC

The first experiment addresses Stromelysin-1 (MMP-3) (Rattus norvegicus) (UniProt P03957). In words: Compound was tested for its inhibitory activity against Matrix metalloprotease-3 (MMP-3) in adjuvant arthritic rat model of rheumatoid arthritis.
For orientation: IC50 means the concentration that gives 50% inhibition. Consider `CNC(=O)[C@H](Cc1ccccc1)NC(=O)[C@H](C[S+](C)[O-])NC(=O)CS` (stereo partly drawn) [(R)-2-(2-Mercapto-acetylamino)-3-methanesulfinyl-N-((S)-1-methylcarbamoyl-2-phenyl-ethyl)-propionamide], for which the IC50 came out at 8500 nM.
Take `CNC(=O)[C@H](Cc1ccccc1)NC(=O)[C@H](CC(C)C)NC(=O)CS` [(S)-2-(2-Mercapto-acetylamino)-4-methyl-pentanoic acid ((S)-1-methylcarbamoyl-2-phenyl-ethyl)-amide]: the IC50 worked out at 2600 nM.
In the case of `CCC(=O)N[C@@H](CC(C)C)C(=O)N[C@@H](Cc1ccccc1)C(=O)NC` [(S)-4-Methyl-2-propionylamino-pentanoic acid ((S)-1-methylcarbamoyl-2-phenyl-ethyl)-amide] (Propionyl-Leu-Phe-NHMe), the IC50 was above 100000 nM.
On the same count and under the same terms, to `CNC(=O)[C@H](Cc1ccccc1)NC(=O)[C@H](CC(C)C)NC(=O)CCS` [(S)-2-(3-Mercapto-propionylamino)-4-methyl-pentanoic acid ((S)-1-methylcarbamoyl-2-phenyl-ethyl)-amide] ([Mpa]-Leu-Phe-NHMe) belongs above 100000 nM; to `CNC(=O)[C@H](Cc1ccccc1)NC(=O)[C@H](CSC)NC(=O)CS` [(R)-2-(2-Mercapto-acetylamino)-N-((S)-1-methylcarbamoyl-2-phenyl-ethyl)-3-methylsulfanyl-propionamide], 650 nM; to `CNC(=O)[C@H](Cc1ccccc1)NC(=O)[C@H](CC(C)C)NC(=O)CSC` [(S)-4-Methyl-2-(2-methylsulfanyl-acetylamino)-pentanoic acid ((S)-1-methylcarbamoyl-2-phenyl-ethyl)-amide], above 100000 nM.
Same read-out and setting: the value for `CNC(=O)[C@H](Cc1ccccc1)NC(=O)[C@@H](NC(=O)CS)C(C)O` (stereo partly drawn) [(S)-3-Hydroxy-2-(2-mercapto-acetylamino)-N-((S)-1-methylcarbamoyl-2-phenyl-ethyl)-butyramide] was above 100000 nM.

Another experiment has the same target. The experiment is described as above. The source holds these as a separate data set.
For `CNC(=O)[C@H](Cc1c[nH]c2ccccc12)NC(=O)[C@H](CC(C)C)NC(=O)CS` [(S)-2-(2-Mercapto-acetylamino)-4-methyl-pentanoic acid [(S)-2-(1H-indol-3-yl)-1-methylcarbamoyl-ethyl]-amide], the IC50 came to 430 nM.
In the case of `CNC(=O)[C@H](Cc1c[nH]c2ccccc12)NC(=O)[C@H](CSC)NC(=O)CS` [(R)-N-[(S)-2-(1H-Indol-3-yl)-1-methylcarbamoyl-ethyl]-2-(2-mercapto-acetylamino)-3-methylsulfanyl-propionamide], the IC50 amounted to 810 nM.
Same read-out and setting: the value for `CNC(=O)[C@H](Cc1cscn1)NC(=O)[C@H](CC(C)C)NC(=O)CS` [(S)-2-(2-Mercapto-acetylamino)-4-methyl-pentanoic acid ((S)-1-methylcarbamoyl-2-thiazol-4-yl-ethyl)-amide] was 430 nM.

Source of the values: BindingDB's records for doi:10.1016/S0960-894X(97)00125-X (1997).
